# Experimental data published in patent US20020035061A1, “COMPOSITIONS AND METHODS FOR TREATING INFECTIONS USING CATIONIC PEPTIDES ALONE OR IN COMBINATION WITH ANTIBIOTICS” (priority 1996, published 2002).
# Like-named read-outs stand apart in the source and are kept apart here.
# Assays:
# Type in all cases: cell-based
# [1] = test system: A. calcoaceticus; conditions: A. calcoaceticus strain AC001
# [2] = test system: E. cloacae; conditions: E. cloacae strain ECL006
# [3] = test system: E. coli; conditions: E. coli strain ECO005
# [4] = test system: E. faecalis; conditions: E. faecalis strain EFS002
# [5] = test system: E. faecium; conditions: E. faecium strain EFM001
# [6] = test system: H. influenzae; assay: Agarose dilution assay (MIC)
# [7] = test system: K. pneumoniae; conditions: K. pneumoniae strain KP001
# [8] = test system: P. aeruginosa; conditions: P. aeruginosa strain PA006
# [9] = test system: S. aureus; conditions: S. aureus strain SA012
# [10] = test system: S. epidermidis; conditions: S. epidermidis strain SE002
# [11] = test system: S. maltophilia; conditions: S. maltophilia strain SMA001
# [12] = test system: S. marcescens
# [13] = test system: S. pneumoniae; assay: Agarose dilution assay (MIC)
# [14] = test system: S. pyogenes; assay: Agarose dilution assay (MIC); conditions: S. pyogenes strain SPY006
# [15] = test system: bacterial isolates; assay: microbe, parasite or virus in culture; conditions: for Peptide MIC Alone: Piperacillin section; for FIC: peptide + Piperacillin
# [16] = test system: inherently resistant microorganisms; assay: microbe, parasite or virus in culture; conditions: S. aureus MRSA
# [17] = test system: microorganisms with acquired resistance; assay: microbe, parasite or virus in culture; conditions: for Peptide MIC Alone: Piperacillin section; for FIC: peptide + Piperacillin
sequence,measurement,setting,value
ILKKWPWWPWRR [MBI 11G7CN],MIC,[1],128 µg/mL
same,MIC,[2],64 µg/mL
same,MIC,[3],8 µg/mL
same,MIC,[4],32 µg/mL
same,MIC,[5],8 µg/mL
same,MIC,[6]; H. influenzae strain HIN002,>128 µg/mL
same,MIC,[6]; H. influenzae strain SBHIN2,>128 µg/mL
same,MIC,[7],16 µg/mL
same,MIC,[8],>128 µg/mL
same,MIC,[9],2 µg/mL
same,MIC,[10],2 µg/mL
same,MIC,[11],32 µg/mL
same,MIC,[12]; S. marcescens strain SBSM1,>128 µg/mL
same,MIC,[12]; S. marcescens strain SMS003,>128 µg/mL
same,MIC,[13]; S. pneumoniae strain SBSPN2,>128 µg/mL
same,MIC,[13]; S. pneumoniae strain SPN044,>128 µg/mL
same,MIC,[14],16 µg/mL
same,Peptide MIC + Piperacillin,[15]; A. calcoaceticus 3,16 µg/mL
same,Piperacillin MIC + Peptide,[15]; A. calcoaceticus 3,32 µg/mL
same,Peptide MIC Alone,[15]; A. calcoaceticus 3,64 µg/mL
same,Peptide MIC + Piperacillin,[15]; H. influenzae SB1,4 µg/mL
same,Piperacillin MIC + Peptide,[15]; H. influenzae SB1,0.25 µg/mL
same,Peptide MIC Alone,[15]; H. influenzae SB1,>128 µg/mL
same,Peptide MIC + Piperacillin,[15]; P. aeruginosa 7,64 µg/mL
same,Piperacillin MIC + Peptide,[15]; P. aeruginosa 7,64 µg/mL
same,Peptide MIC Alone,[15]; P. aeruginosa 7,>128 µg/mL
same,Peptide MIC + Piperacillin,[15]; P. aeruginosa 23,1 µg/mL
same,Piperacillin MIC + Peptide,[15]; P. aeruginosa 23,64 µg/mL
same,Peptide MIC Alone,[15]; P. aeruginosa 23,>128 µg/mL
same,Peptide MIC + Piperacillin,[15]; S. aureus 18 MRSA,8 µg/mL
same,Piperacillin MIC + Peptide,[15]; S. aureus 18 MRSA,64 µg/mL
same,Peptide MIC Alone,[15]; S. aureus 18 MRSA,32 µg/mL
same,Peptide MIC + Piperacillin,[15]; S. aureus 19 MRSA,0.5 µg/mL
same,Piperacillin MIC + Peptide,[15]; S. aureus 19 MRSA,64 µg/mL
same,Peptide MIC Alone,[15]; S. aureus 19 MRSA,8 µg/mL
same,Peptide MIC + Piperacillin,[15]; S. marcescens 1,1 µg/mL
same,Piperacillin MIC + Peptide,[15]; S. marcescens 1,16 µg/mL
same,Peptide MIC Alone,[15]; S. marcescens 1,>128 µg/mL
same,FIC,[15]; A. calcoaceticus 3,0.50
same,FIC,[15]; H. influenzae SB1,0.52
same,FIC,[15]; P. aeruginosa 7,0.50
same,FIC,[15]; P. aeruginosa 23,0.50
same,FIC,[15]; S. aureus 18 MRSA,0.50
same,FIC,[15]; S. aureus 19 MRSA,0.56
same,FIC,[15]; S. marcescens 1,0.25
same,Peptide MIC + Piperacillin,[16],2 µg/mL
same,Peptide MIC Alone,[16]; Piperacillin section,8 µg/mL
same,FIC,[16]; peptide + Piperacillin,0.25
same,Peptide MIC + Piperacillin,[17]; A. calcoaceticus 3,32 µg/mL
same,Piperacillin MIC + Peptide,[17]; A. calcoaceticus 3,16 µg/mL
same,Peptide MIC Alone,[17]; A. calcoaceticus 3,64 µg/mL
same,Peptide MIC + Piperacillin,[17]; H. influenzae 1,64 µg/mL
same,Piperacillin MIC + Peptide,[17]; H. influenzae 1,16 µg/mL
same,Peptide MIC Alone,[17]; H. influenzae 1,>128 µg/mL
same,Peptide MIC + Piperacillin,[17]; P. aeruginosa 7,64 µg/mL
same,Piperacillin MIC + Peptide,[17]; P. aeruginosa 7,64 µg/mL
same,Peptide MIC Alone,[17]; P. aeruginosa 7,>128 µg/mL
same,Peptide MIC + Piperacillin,[17]; P. aeruginosa 23,1 µg/mL
same,Piperacillin MIC + Peptide,[17]; P. aeruginosa 23,64 µg/mL
same,Peptide MIC Alone,[17]; P. aeruginosa 23,>128 µg/mL
same,Peptide MIC + Piperacillin,[17]; S. maltophilia 2,16 µg/mL
same,Piperacillin MIC + Peptide,[17]; S. maltophilia 2,16 µg/mL
same,Peptide MIC Alone,[17]; S. maltophilia 2,64 µg/mL
same,Peptide MIC + Piperacillin,[17]; S. marcescens 1,1 µg/mL
same,Piperacillin MIC + Peptide,[17]; S. marcescens 1,16 µg/mL
same,Peptide MIC Alone,[17]; S. marcescens 1,>128 µg/mL
same,FIC,[17]; A. calcoaceticus 3,0.63
same,FIC,[17]; H. influenzae 1,0.75
same,FIC,[17]; P. aeruginosa 7,0.50
same,FIC,[17]; P. aeruginosa 23,0.50
same,FIC,[17]; S. maltophilia 2,0.75
same,FIC,[17]; S. marcescens 1,0.25
